Test results published in paper PMC6117091, “The C. difficile clnRAB operon initiates adaptations to the host environment in response to LL-37” (PLoS Pathogens, 2018).

Tested on: gene expression in C. difficile 630Δerm
Test: RNA-seq, genes differentially expressed in LL-37
Settings: 2 µg/ml LL-37, BHIS

Q: With `CC[C@H](C)[C@H](NC(=O)[C@H](CCCCN)NC(=O)[C@H](CCC(=O)O)NC(=O)[C@H](CCCCN)NC(=O)[C@H](CO)NC(=O)[C@H](CCCCN)NC(=O)[C@H](CCCNC(=N)N)NC(=O)[C@H](Cc1ccccc1)NC(=O)[C@H](Cc1ccccc1)NC(=O)[C@H](CC(=O)O)NC(=O)CNC(=O)[C@H](CC(C)C)NC(=O)[C@@H](N)CC(C)C)C(=O)NCC(=O)N[C@@H](CCCCN)C(=O)N[C@@H](CCC(=O)O)C(=O)N[C@@H](Cc1ccccc1)C(=O)N[C@@H](CCCCN)C(=O)N[C@@H](CCCNC(=N)N)C(=O)N[C@H](C(=O)N[C@H](C(=O)N[C@@H](CCC(N)=O)C(=O)N[C@@H](CCCNC(=N)N)C(=O)N[C@H](C(=O)N[C@@H](CCCCN)C(=O)N[C@@H](CC(=O)O)C(=O)N[C@@H](Cc1ccccc1)C(=O)N[C@@H](CC(C)C)C(=O)N[C@@H](CCCNC(=N)N)C(=O)N[C@@H](CC(N)=O)C(=O)N[C@@H](CC(C)C)C(=O)N[C@H](C(=O)N1CCC[C@H]1C(=O)N[C@@H](CCCNC(=N)N)C(=O)N[C@H](C(=O)N[C@@H](CCC(=O)O)C(=O)N[C@@H](CO)C(=O)O)[C@@H](C)O)C(C)C)[C@@H](C)CC)C(C)C)[C@@H](C)CC` [LL-37] as the molecule, how does the “23S_rRNA fold change in LL-37” value read?
A: 0.27

Q: And the “CD630_00470 (ispD) fold change in LL-37” value?
A: 0.48

Q: And the “CD630_01060 (cwlD) fold change in LL-37” value?
A: 0.43

Q: And the “CD630_01250 fold change in LL-37” value?
A: 0.44

Q: And the “CD630_01631 fold change in LL-37” value?
A: 0.22

Q: What about the “CD630_01930 (groS) fold change in LL-37” value of the same molecule?
A: 0.46

Q: What about the “CD630_02910 fold change in LL-37” value of the same molecule?
A: 3.25

Q: And the “CD630_03140 fold change in LL-37” value?
A: 0.41

Q: And the “CD630_03240 (cbiM) fold change in LL-37” value?
A: 0.42

Q: What about the “CD630_03250 (cbiN) fold change in LL-37” value of the same molecule?
A: 0.50

Q: And the “CD630_03260 (cbiQ1) fold change in LL-37” value?
A: 0.41

Q: And the “CD630_03270 (cbiO) fold change in LL-37” value?
A: 0.40

Q: What about the “CD630_03580 fold change in LL-37” value of the same molecule?
A: 3.38

Q: What about the “CD630_03830 fold change in LL-37” value of the same molecule?
A: 2.58

Q: What about the “CD630_03901 fold change in LL-37” value of the same molecule?
A: 0.43

Q: What about the “CD630_04090 fold change in LL-37” value of the same molecule?
A: 0.44

Q: What about the “CD630_04440 (ortB) fold change in LL-37” value of the same molecule?
A: 2.09

Q: What about the “CD630_04670 fold change in LL-37” value of the same molecule?
A: 3.43

Q: And the “CD630_04780 (spaF) fold change in LL-37” value?
A: 3.43

Q: What about the “CD630_04800 (spaG) fold change in LL-37” value of the same molecule?
A: 2.29

Q: And the “CD630_04890 fold change in LL-37” value?
A: 2.26

Q: And the “CD630_04900 fold change in LL-37” value?
A: 4.13

Q: What about the “CD630_04960 fold change in LL-37” value of the same molecule?
A: 4.13

Q: And the “CD630_04970 fold change in LL-37” value?
A: 3.86

Q: What about the “CD630_04980 fold change in LL-37” value of the same molecule?
A: 4.13

Q: What about the “CD630_05000 fold change in LL-37” value of the same molecule?
A: 3.61

Q: What about the “CD630_05060 fold change in LL-37” value of the same molecule?
A: 3.54

Q: And the “CD630_05100 fold change in LL-37” value?
A: 3.07

Q: What about the “CD630_05101 fold change in LL-37” value of the same molecule?
A: 3.31

Q: What about the “CD630_05102 fold change in LL-37” value of the same molecule?
A: 3.35

Q: What about the “CD630_05103 fold change in LL-37” value of the same molecule?
A: 3.27

Q: What about the “CD630_05490 fold change in LL-37” value of the same molecule?
A: 4.74

Q: And the “CD630_05500 fold change in LL-37” value?
A: 5.52

Q: What about the “CD630_05670 fold change in LL-37” value of the same molecule?
A: 0.44

Q: What about the “CD630_05770 fold change in LL-37” value of the same molecule?
A: 2.96

Q: What about the “CD630_05780 fold change in LL-37” value of the same molecule?
A: 0.47

Q: What about the “CD630_05790 fold change in LL-37” value of the same molecule?
A: 0.40

Q: What about the “CD630_06140 fold change in LL-37” value of the same molecule?
A: 0.43

Q: What about the “CD630_06240 fold change in LL-37” value of the same molecule?
A: 0.45

Q: What about the “CD630_07290 (gcvH) fold change in LL-37” value of the same molecule?
A: 2.23

Q: And the “CD630_08450 fold change in LL-37” value?
A: 0.40

Q: What about the “CD630_08530 (oppB) fold change in LL-37” value of the same molecule?
A: 3.02

Q: And the “CD630_08570 (oppF) fold change in LL-37” value?
A: 2.88

Q: What about the “CD630_09080 fold change in LL-37” value of the same molecule?
A: 0.23

Q: And the “CD630_09170 fold change in LL-37” value?
A: 0.45

Q: What about the “CD630_09260 fold change in LL-37” value of the same molecule?
A: 2.36

Q: What about the “CD630_09340 fold change in LL-37” value of the same molecule?
A: 0.39

Q: What about the “CD630_09360 fold change in LL-37” value of the same molecule?
A: 0.28

Q: And the “CD630_09950 (serA) fold change in LL-37” value?
A: 0.23

Q: What about the “CD630_09960 fold change in LL-37” value of the same molecule?
A: 0.24

Q: What about the “CD630_10280 fold change in LL-37” value of the same molecule?
A: 0.48

Q: What about the “CD630_10540 (bcd2) fold change in LL-37” value of the same molecule?
A: 2.94

Q: What about the “CD630_10550 (etfB3) fold change in LL-37” value of the same molecule?
A: 3.07

Q: What about the “CD630_10560 (etfA3) fold change in LL-37” value of the same molecule?
A: 3.22

Q: What about the “CD630_10570 (crt2) fold change in LL-37” value of the same molecule?
A: 2.97

Q: And the “CD630_10580 (hbd) fold change in LL-37” value?
A: 3.51

Q: What about the “CD630_10590 (thlA1) fold change in LL-37” value of the same molecule?
A: 3.56

Q: And the “CD630_10850 fold change in LL-37” value?
A: 2.17

Q: And the “CD630_10860 fold change in LL-37” value?
A: 2.54

Q: What about the “CD630_10980 fold change in LL-37” value of the same molecule?
A: 2.17

Q: And the “CD630_11261 fold change in LL-37” value?
A: 0.42

Q: And the “CD630_11540 fold change in LL-37” value?
A: 0.40

Q: What about the “CD630_11710 (etfB4) fold change in LL-37” value of the same molecule?
A: 0.45

Q: And the “CD630_12382 fold change in LL-37” value?
A: 5.60

Q: And the “CD630_12400 (vanZ) fold change in LL-37” value?
A: 28.43

Q: And the “CD630_12700 fold change in LL-37” value?
A: 0.45

Q: And the “CD630_13450 fold change in LL-37” value?
A: 0.46

Q: And the “CD630_13460 fold change in LL-37” value?
A: 0.50

Q: And the “CD630_13610 fold change in LL-37” value?
A: 0.37

Q: And the “CD630_13640 fold change in LL-37” value?
A: 0.40

Q: What about the “CD630_13720 fold change in LL-37” value of the same molecule?
A: 0.48

Q: What about the “CD630_13900 fold change in LL-37” value of the same molecule?
A: 2.35

Q: And the “CD630_14240 fold change in LL-37” value?
A: 2.97

Q: What about the “CD630_14890 (metN) fold change in LL-37” value of the same molecule?
A: 0.32

Q: And the “CD630_14900 (met I) fold change in LL-37” value?
A: 0.32

Q: What about the “CD630_15100 fold change in LL-37” value of the same molecule?
A: 2.24

Q: What about the “CD630_15120 (panC) fold change in LL-37” value of the same molecule?
A: 2.15

Q: What about the “CD630_15470 (hisZ) fold change in LL-37” value of the same molecule?
A: 2.92

Q: What about the “CD630_15490 (hisC) fold change in LL-37” value of the same molecule?
A: 2.86

Q: And the “CD630_15500 (hisB) fold change in LL-37” value?
A: 3.12

Q: And the “CD630_15510 (hisH) fold change in LL-37” value?
A: 3.29

Q: And the “CD630_15520 (hisA) fold change in LL-37” value?
A: 2.80

Q: What about the “CD630_15540 (hisI) fold change in LL-37” value of the same molecule?
A: 3.10

Q: What about the “CD630_15560 fold change in LL-37” value of the same molecule?
A: 2.16

Q: What about the “CD630_15660 (ilvB) fold change in LL-37” value of the same molecule?
A: 2.01

Q: And the “CD630_15800 (hom2) fold change in LL-37” value?
A: 0.49

Q: What about the “CD630_16070 fold change in LL-37” value of the same molecule?
A: 30.25

Q: What about the “CD630_16090 fold change in LL-37” value of the same molecule?
A: 30.62

Q: What about the “CD630_16100 fold change in LL-37” value of the same molecule?
A: 64.45

Q: What about the “CD630_16110 fold change in LL-37” value of the same molecule?
A: 34.77

Q: What about the “CD630_16120 fold change in LL-37” value of the same molecule?
A: 3.18

Q: What about the “CD630_16130 (cotA) fold change in LL-37” value of the same molecule?
A: 2.18

Q: What about the “CD630_16170 (clnR) fold change in LL-37” value of the same molecule?
A: 186.82

Q: What about the “CD630_16180 (clnA) fold change in LL-37” value of the same molecule?
A: 202.99

Q: And the “CD630_16190 (clnB) fold change in LL-37” value?
A: 192.16

Q: And the “CD630_16200 fold change in LL-37” value?
A: 2.15

Q: And the “CD630_16310 (sodA) fold change in LL-37” value?
A: 2.59

Q: What about the “CD630_16590 fold change in LL-37” value of the same molecule?
A: 2.69

Q: And the “CD630_16632 fold change in LL-37” value?
A: 0.32

Q: And the “CD630_16740 fold change in LL-37” value?
A: 2.47

Q: What about the “CD630_16990 (ribE) fold change in LL-37” value of the same molecule?
A: 4.23

Q: And the “CD630_17000 (ribD) fold change in LL-37” value?
A: 3.65

Q: And the “CD630_17021 (thiS) fold change in LL-37” value?
A: 2.41

Q: What about the “CD630_17151 fold change in LL-37” value of the same molecule?
A: 2.24

Q: What about the “CD630_17170 fold change in LL-37” value of the same molecule?
A: 2.07

Q: And the “CD630_17452 fold change in LL-37” value?
A: 0.34

Q: And the “CD630_17540 fold change in LL-37” value?
A: 0.42

Q: And the “CD630_17880 fold change in LL-37” value?
A: 2.48

Q: And the “CD630_18020 fold change in LL-37” value?
A: 3.05

Q: What about the “CD630_18270 fold change in LL-37” value of the same molecule?
A: 0.47

Q: What about the “CD630_18470 fold change in LL-37” value of the same molecule?
A: 0.36

Q: What about the “CD630_18860 fold change in LL-37” value of the same molecule?
A: 0.41

Q: What about the “CD630_18870 (csfU) fold change in LL-37” value of the same molecule?
A: 5.34

Q: What about the “CD630_18880 (rsiU) fold change in LL-37” value of the same molecule?
A: 3.69
